Measured values from publication PMC11431439, “Study on the Inhibitory Effect of Bioactive Peptides Derived from Yak Milk Cheese on Cholesterol Esterase” (Foods, 2024).
“Also recorded” adds a separate entry of the source. Where no end group is shown, it is not given here.

Tests used:
[1] = peptide isolated from soybean glycinin; ref [26]; cited from earlier work
Source text: These carbon–hydrogen bonds may have stabilized the QP13–CE complex to some extent, complementing the hydrogen bonds. It formed π–Alkyl bonds with Ile426, Phe119, Ala117, Leu69, and Leu124 through hydrophobic interactions. QP13 also interacted with Asp434, Lys445, Asn118, Met424, Ile426, Tyr75, Thr68, Tyr427, Tyr123, Leu69, Gln440, Asn112, Phe119, and Arg63 through van der Waals f ...

[2] = target: T1, Porcine cholesterol esterase (Sus scrofa, UniProt A0A286ZKB1); test: CE inhibitory activity assay (spectrophotometry); assay type: biochemical; details: for concentration dependence of CE inhibition rate: 0.2–1.0 mg/mL; for CE inhibition rate vs control group: all concentrations, p < 0.05; for comparative inhibitory activity on CE (in words): authors' ranking, for KQ7 partly integrating molecular dynamics
T1 sequence (A0A286ZKB1 1-682): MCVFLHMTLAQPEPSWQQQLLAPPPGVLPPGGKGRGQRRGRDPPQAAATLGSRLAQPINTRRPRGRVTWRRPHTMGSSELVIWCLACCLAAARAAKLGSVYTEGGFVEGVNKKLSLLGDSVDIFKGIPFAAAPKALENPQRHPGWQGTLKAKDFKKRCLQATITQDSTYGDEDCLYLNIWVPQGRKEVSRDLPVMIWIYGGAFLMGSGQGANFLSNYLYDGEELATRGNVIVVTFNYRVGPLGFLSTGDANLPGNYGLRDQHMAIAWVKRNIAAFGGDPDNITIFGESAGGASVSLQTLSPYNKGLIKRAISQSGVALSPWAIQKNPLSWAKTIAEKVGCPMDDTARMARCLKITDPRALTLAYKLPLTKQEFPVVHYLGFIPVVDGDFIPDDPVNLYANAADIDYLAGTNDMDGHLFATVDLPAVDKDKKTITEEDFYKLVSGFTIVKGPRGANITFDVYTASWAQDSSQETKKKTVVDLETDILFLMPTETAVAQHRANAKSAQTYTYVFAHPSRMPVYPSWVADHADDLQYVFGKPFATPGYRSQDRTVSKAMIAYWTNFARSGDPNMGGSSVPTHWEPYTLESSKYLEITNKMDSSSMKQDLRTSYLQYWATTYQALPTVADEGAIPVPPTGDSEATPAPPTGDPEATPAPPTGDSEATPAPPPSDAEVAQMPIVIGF
Protocol: (§1) Porcine cholesterol esterase and the ELISA kit were provided by Jiangsu JINGMEI Biotechnology Co., Ltd. (Yancheng, China).
(§2) In the formula, ODs: is the absorbance value of the sample group; ODsb: is the absorbance value of the sample blank group; ODc: is the absorbance value of the control group; and ODb: is the absorbance value of the blank group.
(§3) Each experimental sample was tested in triplicate, and the data were processed using IBM SPSS Statistics 26 software. Figures were generated using Origin 2018 and GraphPad Prism 8.0.2 software.

[3] = target: T1, Porcine cholesterol esterase; test: CE inhibitory activity after simulated gastrointestinal digestion (pepsin, trypsin); assay type: biochemical; details: for CE inhibition after digestion (in words): after simulated gastrointestinal digestion; for change of CE inhibition on digestion (in words): simulated gastrointestinal digestion, KQ7, QP13, VN10 at 60 min, RK7 within 120 min
Source text: as §1, §2
We dissolved the synthesized peptide aqueous solution in pepsin (enzyme: substrate 1:50 w/w) and adjusted the pH to 2 using 1 mol/L HCl. Then, we hydrolyzed this at 37 °C for 90 min, then adjusted the pH to 7.5 with 1 mol/L NaOH solution and added trypsin (enzyme: substrate 1:50 w/w). Next, we hydrolyzed this at 37 °C for 180 min in a constant temperature water bath. Subsequently, we inactivated this by boiling it in a 95 °C water bath for 10 min. Finally, we took samples every 30 min and stored each sample at −20 °C for later analysis.
The determination of CE activity refers to Section 2.3.5.
as §3

Compound	cholesterol effect [1]	concentration dependence of CE inhibition rate [2]	CE inhibition rate vs control group [2]	CE inhibition after digestion (in words) [3]	change of CE inhibition on digestion (in words) [3]	comparative inhibitory activity on CE (in words) [2]	IC50 ([2]; from inhibition curve, spectrophotometry, triplicate)
Leu–Pro–Tyr–Pro	demonstrated low cholesterol effects	–	–	–	–	–	–
VYPFPGPIPN [VN10]	–	increased with the increase of peptide mass concentration	significantly higher than those of the control group at all concentrations (p < 0.05)	effective in inhibiting CE after simulated gastrointestinal digestion	significant increases in inhibition activity (p < 0.05)	–	–
CC(C)c1c(C(=O)Nc2ccccc2)c(-c2ccccc2)c(-c2ccc(F)cc2)n1CC[C@@H](O)C[C@@H](O)CC(=O)O [Atorvastatin, reference compound]	–	–	–	–	–	strongest inhibitory effect on CE	854 µM
QEPVLGPVRGPFP [QP13]	–	increased with the increase of peptide mass concentration	significantly higher than those of the control group at all concentrations (p < 0.05)	effective in inhibiting CE after simulated gastrointestinal digestion	significant increases in inhibition activity (p < 0.05)	–	–
KVLPVPQ [KQ7, Lys-Val-Leu-Pro-Val-Pro-Gln]	–	increased with the increase of peptide mass concentration	significantly higher than those of the control group at all concentrations (p < 0.05)	effective in inhibiting CE after simulated gastrointestinal digestion	significant increase in the inhibitory activity; also recorded: significant increase in CE inhibition activity at 60 min during digestion (p < 0.05); also recorded: significantly enhanced after simulated gastrointestinal digestion	highest inhibitory activity on CE; also recorded: higher inhibitory activity against CE compared to RK7; also recorded: highest inhibitory activity against CE	–
RPKHPIK [RK7, Arg-Pro-Lys-His-Pro-Ile-Lys]	–	increased with the increase of peptide mass concentration	significantly higher than those of the control group at all concentrations (p < 0.05)	effective in inhibiting CE after simulated gastrointestinal digestion	significant increase in the inhibitory activity; also recorded: significant changes observed (p < 0.05); also recorded: significantly enhanced after simulated gastrointestinal digestion	–	–
